The values below come from US20250188082A1, “Use of Hypoxanthine Compound In Preparation of Drug For Treating Pulmonary Fibrosis” (Sichuan Yiasuo Pharmaceutical Technology Co., Ltd., priority 2022, published 2025).

Common to all, as to type: in vivo, C57BL/6 mice
Experiment [1] relates to influenza A virus-induced pulmonary fibrosis model (FM1 strain of influenza A (H1N1) virus). In words: Influenza A virus-induced pulmonary fibrosis model. The settings on record: 120 mg/kg/d intragastric, 14 days; for Ashcroft scores: influenza A virus + bleomycin, lung tissue HE; for IL-1β / IL-6 / NF-κB / TNF-α: serum, influenza A (H1N1) FM1 + bleomycin, from two weeks after model. An excerpt: Experimental method: an in-vivo influenza A virus-induced pulmonary fibrosis model was established: C57BL/6 mice (with weights being 22-25 g) were randomly and evenly divided into a plurality of groups, including blank control group, model group, Nintedanib positive control group, hypoxanthine analogue A group, hypoxanthine analogue B group, hypoxanthine analogue C group, compound 1 group, compound 2 group . . . compound 12 group, with 9 mice in each group. On Day 1, the mice in blank control group were instilled with normal saline nasally, and the mice in other groups were all infected with a FM1 strain of an influenza A (H1N1) virus 30 (μL) through nasal instillation. On Day 2, the mice received 5 mg/kg bleomycin through tracheas to induce their pulmonary fibrosis. After the model was established for two weeks, the mice in each group were intragastrically administrated for intervention for consecutive 14 days; the mice in blank control group and model group intragastrically received the same dosage of the normal saline as those in drug groups; the mice in Nintedanib positive control group received Nintedanib (120 mg/kg); the mice in hypoxanthine analogue A group, hypoxanthine analogue B group and hypoxanthine analogue C group respectively received hypoxanthine analogue A (120 mg/kg/d), hypoxanthine analogue B (120 mg/kg/d) and hypoxanthine analogue C (120 mg/kg/d); and the mice in compound 1 group, compound 2 group . . . compound 12 group respectively received compound 1 (120 mg/kg/d), compound 2 (120 mg/kg/d) . . . compound 12 (120 mg/kg/d) prepared in example 1. After administration for consecutive 14 days, the mice were observed every day, and their weights and death conditions were recorded. After administration, blood was taken from eyeballs for immediately detecting the expression levels of NF-κB, TNF-α, IL-1 and IL-6 in serum, and lung tissues were taken for HE detection and Ashcroft scoring.

The test system of experiment [2] is bleomycin-induced pulmonary fibrosis model. In words: Comparison with comparative drugs: bleomycin-induced model, hydroxyproline and TGF-β. The settings on record: 120 mg/kg/d intragastric, twice every day, 14 days, from two weeks after model; Day 15.
Experiment [3] concerns novel coronavirus-induced pulmonary fibrosis model (COVID-19 novel coronavirus strains). In words: Novel coronavirus-induced pulmonary fibrosis model. The settings on record: 120 mg/kg/d intragastric, 14 days; for Ashcroft scores: novel coronavirus + bleomycin, lung tissue HE; for IL-1β / NF-κB / TNF-α / IL-6: serum, COVID-19 novel coronavirus + bleomycin, from two weeks after model. An excerpt: Experimental method: an in-vivo novel coronavirus-induced pulmonary fibrosis model was established: C57BL/6 mice (with weights being 22-25 g) were randomly and evenly divided into a plurality of groups, including blank control group, model group, Nintedanib positive control group, hypoxanthine analogue A group, hypoxanthine analogue B group, hypoxanthine analogue C group, compound 1 group, a compound 2 group . . . compound 12 group, with 9 mice in each group. On Day 1, the mice in blank control group were instilled with normal saline nasally, and the mice in other groups were all infected with COVID-19 novel coronavirus strains (30 μL) through nasal instillation. On Day 2, the mice received 5 mg/kg bleomycin through tracheas to induce their pulmonary fibrosis. After the model was established for two weeks, the mice in each group were intragastrically administrated for intervention for consecutive 14 days; the mice in blank control group and model group intragastrically received the same dosage of normal saline as those in drug groups; the mice in Nintedanib positive control group received Nintedanib (120 mg/kg); the mice in hypoxanthine analogue A group, hypoxanthine analogue B group and hypoxanthine analogue C group respectively received hypoxanthine analogue A (120 mg/kg/d), hypoxanthine analogue B (120 mg/kg/d) and hypoxanthine analogue C (120 mg/kg/d); and the mice in compound 1 group, compound 2 group . . . compound 12 group respectively received compound 1 (120 mg/kg/d), compound 2 (120 mg/kg/d) . . . compound 12 (120 mg/kg/d) prepared in example 1. After administration for consecutive 14 days, the mice were observed every day, and their weights and death conditions were recorded. After administration, blood was taken from eyeballs for immediately detecting the expression levels of NF-κB, TNF-α, IL-1 and IL-6 in serum, and lung tissues were taken for HE detection and Ashcroft scoring.

On to `CC(=O)Oc1ncnc2c1ncn2C(C)C` [Compound 11], for which, in experiment [1], the Ashcroft scores is on record as 1.26, the IL-1β was found to be 27.9 pg/mL, the IL-6 is recorded as 64.6 pg/mL and the NF-κB came to 26.6 pg/mL. The TNF-α in experiment [1] was 88.7 pg/mL. Besides, in experiment [2], the “Hydroxyproline in bronchoalveolar lavage fluids” value stood at 0.75 ± 0.05 µg/mg, the “Hydroxyproline in lung tissues” value was found to be 1.43 ± 0.11 µg/mg, the “TGF-β in bronchoalveolar lavage fluids” value came to 4.02 ± 0.15 µg/L and the “TGF-β in lung tissues” value came to 23.98 ± 2.19 µg/L. Further, in experiment [3], the Ashcroft scores stood at 1.31, the IL-1β is reported as 37.2 pg/mL, the NF-κB is 26.7 pg/mL and the TNF-α came to 69.0 pg/mL.

Take `CCC(=O)Oc1ncnc2c1ncn2C(C)C` [Compound 12]: in experiment [1], the Ashcroft scores was determined as 1.31, the IL-1β was determined as 29.9 pg/mL, the IL-6 was 64.7 pg/mL and the NF-κB is 28.1 pg/mL. Also, the TNF-α in experiment [1] was 90.8 pg/mL. For the same compound, in experiment [2], the “Hydroxyproline in bronchoalveolar lavage fluids” value stood at 0.76 ± 0.08 µg/mg, the “Hydroxyproline in lung tissues” value was 1.41 ± 0.12 µg/mg, the “TGF-β in bronchoalveolar lavage fluids” value is 4.06 ± 0.15 µg/L and the “TGF-β in lung tissues” value is 23.91 ± 2.38 µg/L. Further, in experiment [3], the Ashcroft scores amounted to 1.18, the IL-1β is 38.9 pg/mL, the IL-6 came out at 66.8 pg/mL and the NF-κB was 27.3 pg/mL. Further, the TNF-α in experiment [3] turned out to be 68.4 pg/mL.

As for `O=c1[nH]cnc2[nH]cnc12` [Hypoxanthine analogue A, reference compound], in experiment [1], the Ashcroft scores is given as 6.11, the IL-1β worked out at 323.1 pg/mL, the IL-6 was determined as 450.9 pg/mL and the NF-κB came to 780.3 pg/mL. For the same compound, the TNF-α in experiment [1] is reported as 339.4 pg/mL. In addition, in experiment [2], the “Hydroxyproline in bronchoalveolar lavage fluids” value is 1.46 ± 0.13 µg/mg, the “Hydroxyproline in lung tissues” value was determined as 2.69 ± 0.12 µg/mg, the “TGF-β in bronchoalveolar lavage fluids” value is 9.23 ± 0.26 µg/L and the “TGF-β in lung tissues” value worked out at 96.47 ± 8.25 µg/L. Further, in experiment [3], the Ashcroft scores is on record as 6.13, the IL-1β amounted to 489.0 pg/mL, the IL-6 was 554.5 pg/mL and the NF-κB worked out at 731.3 pg/mL. The TNF-α in experiment [3] is 400.5 pg/mL.

For `CC(C)Oc1ncnc2c1ncn2C` [Hypoxanthine analogue B, reference compound], in experiment [1], the Ashcroft scores is listed as 6.07, the IL-1β is recorded as 329.7 pg/mL, the IL-6 worked out at 422.7 pg/mL and the NF-κB worked out at 771.9 pg/mL. Besides, in experiment [1], the TNF-α is 341.6 pg/mL. Besides, in experiment [2], the “Hydroxyproline in bronchoalveolar lavage fluids” value was 1.81 ± 0.14 µg/mg, the “Hydroxyproline in lung tissues” value was 2.97 ± 0.19 µg/mg, the “TGF-β in bronchoalveolar lavage fluids” value was 8.95 ± 0.68 µg/L and the “TGF-β in lung tissues” value was determined as 91.53 ± 9.56 µg/L. In experiment [3], the Ashcroft scores amounted to 6.38, the IL-1β is recorded as 491.8 pg/mL, the IL-6 came out at 552.3 pg/mL and the NF-κB is listed as 741.1 pg/mL. In experiment [3], the TNF-α was found to be 401.9 pg/mL.

Regarding `COc1ncnc2c1ncn2C(C)C` [Hypoxanthine analogue C, reference compound], in experiment [1] (120 mg/kg/day), the Ashcroft scores turned out to be 6.09, the IL-1β came out at 338.1 pg/mL, the IL-6 was 450.0 pg/mL and the NF-κB was 782.1 pg/mL. For the same compound, in experiment [1] (120 mg/kg/day), the TNF-α is 333.1 pg/mL. For the same compound, in experiment [2], the “Hydroxyproline in bronchoalveolar lavage fluids” value was 1.12 ± 0.15 µg/mg, the “Hydroxyproline in lung tissues” value was 2.85 ± 0.25 µg/mg, the “TGF-β in bronchoalveolar lavage fluids” value came to 7.42 ± 1.4 µg/L and the “TGF-β in lung tissues” value was determined as 63.83 ± 7.52 µg/L. Also, in experiment [3] (120 mg/kg/day), the Ashcroft scores is listed as 6.71, the IL-1β is listed as 572.7 pg/mL, the IL-6 is given as 543.7 pg/mL and the NF-κB was 739.2 pg/mL. Moreover, the TNF-α in experiment [3] (120 mg/kg/day) came to 542.4 pg/mL.

As to `COC(=O)c1ccc2c(c1)NC(=O)/C2=C(\Nc1ccc(N(C)C(=O)CN2CCN(C)CC2)cc1)c1ccccc1` [Nintedanib, reference compound], in experiment [1], the Ashcroft scores stood at 4.27, the IL-1β is listed as 220.7 pg/mL, the IL-6 came out at 349.1 pg/mL and the NF-κB is 625.2 pg/mL. Besides, the TNF-α in experiment [1] was found to be 243.6 pg/mL. Moreover, in experiment [2], the “Hydroxyproline in bronchoalveolar lavage fluids” value stood at 1.25 ± 0.14 µg/mg, the “Hydroxyproline in lung tissues” value came out at 2.36 ± 0.12 µg/mg, the “TGF-β in bronchoalveolar lavage fluids” value was found to be 7.11 ± 0.24 µg/L and the “TGF-β in lung tissues” value worked out at 75.32 ± 7.51 µg/L. For the same compound, in experiment [3], the Ashcroft scores stood at 6.04, the IL-1β is 561.2 pg/mL, the IL-6 was determined as 523.7 pg/mL and the NF-κB came to 732.7 pg/mL. In addition, the TNF-α in experiment [3] amounted to 539.8 pg/mL.
